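Tested at 5 concentrations; 48 h exposure; 96-well plates; endpoints linearly interpolated, else capped at highest concentration. GI50 is the concentration that inhibits growth by half.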 The source made the active and inactive calls. No stated cut-off is given here; in the data, active = GI50 up to about 1.1 µM and inactive = higher.
What was measured:
Test in all cases: NCI-60 cell line screen, 48 h
[1] = system: ACHN
[2] = system: BT-549
[3] = system: CCRF-CEM
[4] = system: DU-145
[5] = system: EKVX
[6] = system: HL-60
[7] = system: HOP-92
[8] = system: Hs-578T
[9] = system: KM12
[10] = system: M14
[11] = system: MOLT-4
[12] = system: NCI-H460
[13] = system: OVCAR-4
[14] = system: PC-3
[15] = system: SF-268
[16] = system: SF-295
[17] = system: SK-MEL-2
[18] = system: UO-31
[19] = system: A498
[20] = system: MDA-N

| Compound | GI50 [1] | GI50 [2] | GI50 [3] | GI50 [4] | GI50 [5] | GI50 [6] | GI50 [7] | GI50 [8] | GI50 [9] | GI50 [10] | GI50 [11] | GI50 [12] | GI50 [13] | GI50 [14] | GI50 [15] | GI50 [16] | GI50 [17] | GI50 [18] | GI50 [19] | GI50 [20] |
| --- | --- | --- | --- | --- | --- | --- | --- | --- | --- | --- | --- | --- | --- | --- | --- | --- | --- | --- | --- | --- |
| Nc1sc2c(c1C(=O)c1ccc(Cl)c(Cl)c1)CCCC2 | 67.3 µM (inactive) | 20.3 µM (inactive) | 26.4 µM (inactive) | > 100 µM (inactive) | 29.1 µM (inactive) | 22.6 µM (inactive) | 24.5 µM (inactive) | 70.8 µM (inactive) | 22.3 µM (inactive) | 44.1 µM (inactive) | 21.7 µM (inactive) | 40.1 µM (inactive) | 28.7 µM (inactive) | 44.1 µM (inactive) | 45.8 µM (inactive) | 37.2 µM (inactive) | 15 µM (inactive) | 58.2 µM (inactive) |  |  |
| CC1=C(SCc2ccccc2)C(=O)c2ccccc2C1=O | 13.6 µM (inactive) | 16.7 µM (inactive) | 2.9 µM (inactive) | 19.8 µM (inactive) | 19.1 µM (inactive) | 3.73 µM (inactive) | 4.72 µM (inactive) |  | 18.5 µM (inactive) |  | 1.68 µM (inactive) | 21.8 µM (inactive) | 13.9 µM (inactive) | 17.6 µM (inactive) | 16.7 µM (inactive) | 18.1 µM (inactive) | 17.8 µM (inactive) |  | 24 µM (inactive) |  |
| COc1ccc(O[C@H](CO)C[C@@H]2COC(C)(C)O2)cc1 | > 100 µM (inactive) | > 100 µM (inactive) | > 100 µM (inactive) | > 100 µM (inactive) | > 100 µM (inactive) |  |  |  | > 100 µM (inactive) | > 100 µM (inactive) | > 100 µM (inactive) | > 100 µM (inactive) | > 100 µM (inactive) | > 100 µM (inactive) | > 100 µM (inactive) | > 100 µM (inactive) | > 100 µM (inactive) | > 100 µM (inactive) | > 100 µM (inactive) | > 100 µM (inactive) |
| NC(=O)C(=Cn1c(=S)[nH]c2ccc([N+](=O)[O-])cc21)C(N)=O | > 100 µM (inactive) | > 100 µM (inactive) |  | > 100 µM (inactive) | 19.7 µM (inactive) | > 100 µM (inactive) | > 100 µM (inactive) |  | > 100 µM (inactive) | > 100 µM (inactive) | > 100 µM (inactive) | > 100 µM (inactive) | > 100 µM (inactive) |  | > 100 µM (inactive) | > 100 µM (inactive) | > 100 µM (inactive) | > 100 µM (inactive) | > 100 µM (inactive) | > 100 µM (inactive) |
| COc1ccc(C2c3cc(OC)c(OC)cc3C(Cc3ccc([N+](=O)[O-])cc3)C2c2ccc([N+](=O)[O-])cc2)cc1OC (centres undefined) | > 100 µM (inactive) |  | > 100 µM (inactive) |  | > 100 µM (inactive) | > 100 µM (inactive) | 0.879 µM (active) |  | > 100 µM (inactive) | > 100 µM (inactive) | > 100 µM (inactive) | > 100 µM (inactive) | > 100 µM (inactive) |  | > 100 µM (inactive) | > 100 µM (inactive) | > 100 µM (inactive) | 59.6 µM (inactive) | > 100 µM (inactive) |  |
| C/C=C\C(CC(=O)OC)CC(=O)N(CCC1CN(S(=O)(=O)C(F)(F)F)c2ccccc21)Cc1ccc(OC)cc1OC (centres undefined) | > 100 µM (inactive) | > 100 µM (inactive) |  |  | > 100 µM (inactive) |  | > 100 µM (inactive) |  | 45.1 µM (inactive) | > 100 µM (inactive) | > 100 µM (inactive) | 73.1 µM (inactive) | 54.7 µM (inactive) | 63 µM (inactive) | > 100 µM (inactive) | > 100 µM (inactive) | > 100 µM (inactive) | > 100 µM (inactive) | > 100 µM (inactive) | > 100 µM (inactive) |
| CCOC(=O)[C@@H]1C2C(=C[C@H]3[C@H]1C(=O)N1CCCC[C@H]31)CCCN2C(=O)OCc1ccccc1 (some centres undefined) | 29.9 µM (inactive) | 24.7 µM (inactive) | 22.3 µM (inactive) | 39.1 µM (inactive) | 38.3 µM (inactive) | 20.8 µM (inactive) | 76.4 µM (inactive) |  | 36.2 µM (inactive) | 38.8 µM (inactive) | 14.3 µM (inactive) | 23.8 µM (inactive) | 37.8 µM (inactive) | 28.1 µM (inactive) | 23.3 µM (inactive) | 32.5 µM (inactive) | 22.8 µM (inactive) | 32.8 µM (inactive) | 23.6 µM (inactive) | 35.7 µM (inactive) |
| Cc1nnc(N/N=C2/C(=O)Nc3c(Cl)cc(Cl)cc32)n1N | > 100 µM (inactive) |  | 57.5 µM (inactive) |  | > 100 µM (inactive) | > 100 µM (inactive) | > 100 µM (inactive) |  | > 100 µM (inactive) | > 100 µM (inactive) | 44.8 µM (inactive) | > 100 µM (inactive) | > 100 µM (inactive) |  | > 100 µM (inactive) | > 100 µM (inactive) | > 100 µM (inactive) | > 100 µM (inactive) | > 100 µM (inactive) |  |
| CN1Cc2c(nc(-c3ccc(Br)cc3)c[n+]2[O-])N(C)C1 | > 100 µM (inactive) |  | > 100 µM (inactive) |  | > 100 µM (inactive) | > 100 µM (inactive) | > 100 µM (inactive) |  | > 100 µM (inactive) | > 100 µM (inactive) | > 100 µM (inactive) | > 100 µM (inactive) | > 100 µM (inactive) |  | > 100 µM (inactive) | > 100 µM (inactive) | > 100 µM (inactive) | > 100 µM (inactive) | > 100 µM (inactive) |  |
| COC(CN1C(=O)c2cccc3cccc(c23)C1=O)OC | 41.5 µM (inactive) |  | 73.3 µM (inactive) |  | 49 µM (inactive) | 72.9 µM (inactive) | 73.5 µM (inactive) |  | 80.4 µM (inactive) | > 100 µM (inactive) | 32.3 µM (inactive) | 41.3 µM (inactive) | > 100 µM (inactive) |  | > 100 µM (inactive) | > 100 µM (inactive) | 1.61 µM (inactive) | 37.1 µM (inactive) | 82.8 µM (inactive) |  |
| Nc1nc(O)nc2sc3c(c12)CCCC3 | > 100 µM (inactive) |  | 41.3 µM (inactive) | > 100 µM (inactive) | 7.48 µM (inactive) | 88.5 µM (inactive) | > 100 µM (inactive) | 23.6 µM (inactive) | 33.3 µM (inactive) | 41.1 µM (inactive) | 99.3 µM (inactive) | 56.4 µM (inactive) | 38.5 µM (inactive) | > 100 µM (inactive) | 90.4 µM (inactive) |  | > 100 µM (inactive) | 81.7 µM (inactive) |  |  |
| CN(C)/C=C1\CCc2ccc([N+](=O)[O-])cc2C1=O | > 100 µM (inactive) |  | 19.8 µM (inactive) | > 100 µM (inactive) | > 100 µM (inactive) | 25.7 µM (inactive) |  | > 100 µM (inactive) | 55.8 µM (inactive) | 89.9 µM (inactive) | 25.1 µM (inactive) | 28.4 µM (inactive) | 17.9 µM (inactive) | 30.6 µM (inactive) | > 100 µM (inactive) | > 100 µM (inactive) | > 100 µM (inactive) | > 100 µM (inactive) | > 100 µM (inactive) | 19.2 µM (inactive) |
| COc1ccc2[nH]c3c(C)cc([N+](=O)[O-])c(C)c3c2c1 | 22 µM (inactive) |  | 17.9 µM (inactive) |  | 31 µM (inactive) | 16.6 µM (inactive) | 28.4 µM (inactive) |  | 19.7 µM (inactive) | 21.1 µM (inactive) | 20.5 µM (inactive) | 15.5 µM (inactive) | 33 µM (inactive) |  | 37.3 µM (inactive) | 41.4 µM (inactive) | 20.6 µM (inactive) | 21.6 µM (inactive) | 21.6 µM (inactive) |  |
| CN(C)CCNC(=O)Cn1ccc(=O)c2cc([N+](=O)[O-])ccc21 | > 100 µM (inactive) |  | > 100 µM (inactive) | > 100 µM (inactive) | > 100 µM (inactive) | > 100 µM (inactive) | > 100 µM (inactive) | > 100 µM (inactive) | > 100 µM (inactive) | > 100 µM (inactive) | > 100 µM (inactive) | > 100 µM (inactive) |  | > 100 µM (inactive) | > 100 µM (inactive) | > 100 µM (inactive) | > 100 µM (inactive) | > 100 µM (inactive) | > 100 µM (inactive) | > 100 µM (inactive) |
| CC(=O)NC(C=O)C(O[C@H](C)C(=O)NC(C)C(=O)NC(CCC(N)=O)C(=O)OCc1ccccc1)C(O)C(O)COC(=O)CCNc1c2ccccc2nc2cccc([N+](=O)[O-])c12 (some centres undefined) | 2.94 µM (inactive) |  | 1.94 µM (inactive) |  | 5.7 µM (inactive) | 11.5 µM (inactive) | 2.31 µM (inactive) |  | 1.91 µM (inactive) | 1.9 µM (inactive) | 3.57 µM (inactive) | 1.73 µM (inactive) | 12.2 µM (inactive) |  | 1.79 µM (inactive) | 13.1 µM (inactive) | 1.63 µM (inactive) | 16.9 µM (inactive) | > 100 µM (inactive) |  |
| Sc1ncnc2nc[nH]c12 [MERCAPTOPURINE ANHYDROUS] | 6.27 µM (inactive) |  | 1.26 µM (inactive) | 2.51 µM (inactive) | 263 µM (inactive) | 2.44 µM (inactive) | 2.94 µM (inactive) | 14.2 µM (inactive) | 7.57 µM (inactive) | 0.675 µM (active) | 1.61 µM (inactive) | 5.53 µM (inactive) | 8.05 µM (inactive) | 4.39 µM (inactive) | 4.11 µM (inactive) | 5.81 µM (inactive) | 5.97 µM (inactive) | 6.85 µM (inactive) | 58.7 µM (inactive) | 1.78 µM (inactive) |
